Changes are numbered by the printed parent chain.
Key:
[1] = molecular target: T1, aryl hydrocarbon receptor (mAhR) (Mus musculus, UniProt P30561, S359A); test: [3H]TCDD specific binding, hydroxyapatite assay
T1 sequence (P30561 10-848 S359A): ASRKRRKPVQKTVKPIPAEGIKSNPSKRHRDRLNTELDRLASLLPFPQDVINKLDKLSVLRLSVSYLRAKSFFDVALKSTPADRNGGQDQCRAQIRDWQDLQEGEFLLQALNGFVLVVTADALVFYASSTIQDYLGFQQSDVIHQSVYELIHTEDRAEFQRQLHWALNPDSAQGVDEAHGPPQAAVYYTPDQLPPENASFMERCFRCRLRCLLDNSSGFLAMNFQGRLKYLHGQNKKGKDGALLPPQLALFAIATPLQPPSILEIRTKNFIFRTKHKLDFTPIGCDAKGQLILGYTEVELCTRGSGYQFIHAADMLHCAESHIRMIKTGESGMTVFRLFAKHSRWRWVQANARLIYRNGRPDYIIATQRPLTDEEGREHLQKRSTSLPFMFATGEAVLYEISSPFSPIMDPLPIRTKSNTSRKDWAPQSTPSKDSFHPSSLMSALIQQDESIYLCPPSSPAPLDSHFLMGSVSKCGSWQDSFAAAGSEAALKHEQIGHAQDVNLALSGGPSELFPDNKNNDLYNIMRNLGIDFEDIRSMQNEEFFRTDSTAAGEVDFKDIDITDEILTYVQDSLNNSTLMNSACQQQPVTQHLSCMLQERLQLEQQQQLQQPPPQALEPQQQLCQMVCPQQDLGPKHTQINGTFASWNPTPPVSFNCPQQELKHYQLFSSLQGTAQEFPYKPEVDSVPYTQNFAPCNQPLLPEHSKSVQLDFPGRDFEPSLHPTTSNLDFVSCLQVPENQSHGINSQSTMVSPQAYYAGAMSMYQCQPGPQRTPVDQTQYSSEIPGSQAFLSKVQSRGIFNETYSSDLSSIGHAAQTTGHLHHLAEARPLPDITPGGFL

[2] = molecular target: T2, aryl hydrocarbon receptor (mAhR) (Mus musculus, UniProt P30561); test: [3H]TCDD; type: binding
T2 sequence (P30561 10-848): T1 sequence (P30561 10-848 S359A) with A350S

[3] = molecular target: T2, aryl hydrocarbon receptor (mAhR); test: competitive [3H]TCDD hydroxyapatite radioligand binding assay; conditions: read-out: Experimental IC50 (M), in vitro synthesized mAhR

Compound | % reduction of binding vs wild type [1] | [3H]TCDD (2 nM) specific binding, hydroxyapatite assay [2] | IC50 [3]
Clc1cc2c(cc1Cl)Oc1cc(Cl)c(Cl)cc1O2 [TCDD, 2,3,7,8-tetrachlorodibenzo-p-dioxin] | ~ 40 % reduction of binding vs wild type | THS compounds displace [^3H]TCDD from the in vitro synthesized AhR in concentration-dependent manner. | –
O=[N+]([O-])c1cc(C(F)(F)F)ccc1NCc1ccco1 [THS-020] | – | – | 4.2e-06 M

From publication PMC3263330 (2011)
